The record followed here is patent US20100173943A1, “INSECTICIDAL COMPOSITIONS WITH IMPROVED ACTION” (BAYER CROPSCIENCE AG, priority 2007, published 2010).

Assay [1] has as its system green peach aphid (Myzus persicae). Briefly: Myzus persicae test (MYZUPE). It is filed as in vivo. The following applies: pepper plants sprayed, 6 days; for pest or weed control at 0.8 ppm: 0.8 ppm a.i. alone; for pest or weed control at 4 ppm: 4 ppm a.i. alone; for pest or weed control at 20 ppm: 20 ppm a.i. alone. The method, then:
Myzus persicae Test (MYZUPE)
(§1) Solvent: 7 parts by weight of dimethylformamide
(§2) Emulsifier: 2 parts by weight of alkylaryl polyglycol ether
To prepare an appropriate active ingredient formulation, 1 part by weight of active ingredient is mixed with the given amounts of solvent and emulsifier, and the concentrate is diluted with emulsifier-containing water to the desired concentration. In the case that addition of ammonium salts, penetrants, or ammonium salts and penetrants is required, they are pippetted in each case into the finished preparation solution after dilution in a concentration of 1000 ppm each.
Pepper plants (Capsicum annuum) highly infested by the green peach aphid (Myzus persicaei) are treated by spraying with the active ingredient formulation in the desired concentration.
After the desired time, the kill rate in % is determined. 100% means that all animals have been killed; 0% means that no animals have been killed.

Assay [2] relates to cotton aphid (Aphis gossypii). Briefly: Aphis gossypii test (APHIGO spray treatment). The following applies: cotton leaves sprayed, 6 days; for pest or weed control at 0.8 ppm / pest or weed control at 4 ppm: Aphis gossypii, 144 h, read-out: Kill in % after 6 days a.i.; for pest or weed control at 0.8 ppm: 0.8 ppm a.i. alone; for pest or weed control at 4 ppm: 4 ppm a.i. alone. It is filed as in vivo. The method, then:
Aphis gossypii Test (APHIGO Spray Treatment)
as §1, §2
To prepare a ready-to-use active ingredient formulation, 1 part by weight of active ingredient is mixed with the specified amounts of solvent and emulsifier and the concentrate is diluted with emulsifier-containing water to the desired concentration. In the case that addition of ammonium salts, penetrants, or ammonium salts and penetrants is required, they are pipetted in each case into the finished preparation solution after dilution in a concentration of 1000 ppm each.
Cotton leaves (Gossypium hirsutum) highly infested by the cotton aphid (Aphis gossypii) are sprayed with an active ingredient formulation with the desired concentration.
After the desired period, the kill rate in % is determined. 100% means that all aphids have been killed; 0% means that no aphids have been killed.

Setting [3] is: 0.8 ppm a.i. + AMS and RME 1000 ppm each.
[4] abbreviates: 0.8 ppm a.i. + ammonium sulphate 1000 ppm.
The mark [5] stands for this setting: 0.8 ppm a.i. + rapeseed oil methyl ester 1000 ppm.
The mark [6] stands for this setting: Myzus persicae, 144 h, read-out: Kill in % after 6 days a.i.
The mark [7] stands for this setting: 4 ppm a.i. + AMS and RME 1000 ppm each.
Setting [8] is: 4 ppm a.i. + ammonium sulphate 1000 ppm.
The mark [9] stands for this setting: 4 ppm a.i. + rapeseed oil methyl ester 1000 ppm.
Setting [10] is: 20 ppm a.i. + AMS and RME 1000 ppm each.
[11] abbreviates: 20 ppm a.i. + ammonium sulphate 1000 ppm.
[12] abbreviates: 20 ppm a.i. + rapeseed oil methyl ester 1000 ppm.

As to `O=C1C=C(N(Cc2cnc(Cl)c(F)c2)C2CC2)CO1` [Compound I-13, 4-{[(6-chloro-5-fluoropyrid-3-yl)methyl](cyclopropyl)amino}furan-2(5H)-one], the “Kill in % after 6 days +AMS + RME” value in assay [1] (setting [3]) was found to be 90%; in assay [2] (setting [3]), 20%; in assay [2] (setting [7]), 75%. Moreover, the “Kill in % after 6 days +AMS” value in assay [1] (setting [4]) amounted to 5%; in assay [2] (setting [4]), 5%; in assay [2] (setting [8]), 65%. Also, the “Kill in % after 6 days +RME” value is listed as 35% in assay [1] (setting [5]), 5% in assay [2] (setting [5]) and 75% in assay [2] (setting [9]). The results for the pest or weed control at 0.8 ppm in assay [1] (setting [6]) and in assay [2] were 5% and 0%, respectively. The pest or weed control at 4 ppm in assay [2] stood at 80%.
For `O=C1C=C(N(CCF)Cc2cnc(Cl)c(Cl)c2)CO1` [Compound I-14, 4-{[(5,6-dichloropyrid-3-yl)methyl](2-fluoroethyl)amino}furan-2(5H)-one], the “Kill in % after 6 days +AMS + RME” value in assay [1] (setting [7]) was 95%; in assay [2] (setting [3]), 70%. In addition, the results for the “Kill in % after 6 days +AMS” value in assay [1] (setting [8]) and in assay [2] (setting [4]) were 60% and 5%, respectively. Besides, the “Kill in % after 6 days +RME” value was found to be 95% in assay [1] (setting [9]) and 40% in assay [2] (setting [5]). The pest or weed control at 4 ppm in assay [1] (setting [6]) was found to be 25%. Further, the pest or weed control at 0.8 ppm in assay [2] came out at 0%.
Regarding `O=C1C=C(N(Cc2cnc(Br)c(F)c2)CC(F)F)CO1` [Compound I-16, 4-{[(6-bromo-5-fluoropyrid-3-yl)methyl](2,2-difluoroethyl)amino}-furan-2(5H)-one], the “Kill in % after 6 days +AMS + RME” value amounted to 10% in assay [1] (setting [3]), 100% in assay [1] (setting [7]), 5% in assay [2] (setting [3]) and 90% in assay [2] (setting [7]). Also, the “Kill in % after 6 days +AMS” value in assay [1] (setting [4]) stood at 0%; in assay [1] (setting [8]), 99%; in assay [2] (setting [4]), 10%; in assay [2] (setting [8]), 95%. Moreover, the “Kill in % after 6 days +RME” value in assay [1] (setting [5]) came out at 10%; in assay [1] (setting [9]), 98%; in assay [2] (setting [5]) it was 10%; in assay [2] (setting [9]), 98%. Moreover, the results for the pest or weed control at 0.8 ppm in assay [1] (setting [6]) and in assay [2] were 5% and 0%, respectively. The pest or weed control at 4 ppm in assay [1] (setting [6]) was 95%; in assay [2] it was 80%.
On to `O=C1C=C(N(Cc2cnc(Cl)c(F)c2)CC(F)F)CO1` [Compound I-17, 4-{[(6-chloro-5-fluoropyrid-3-yl)methyl](2,2-difluoroethyl)amino}furan-2(5H)-one], for which the “Kill in % after 6 days +AMS + RME” value in assay [1] (setting [3]) stood at 25%; in assay [1] (setting [7]) it was 100%; in assay [2] (setting [3]), 40%. In addition, the figures for the “Kill in % after 6 days +AMS” value in assay [1] (setting [4]), in assay [1] (setting [8]) and in assay [2] (setting [4]) were 5%, 99% and 20%, respectively. For the same compound, the “Kill in % after 6 days +RME” value in assay [1] (setting [5]) was 35%; in assay [1] (setting [9]), 100%; in assay [2] (setting [5]), 40%. The pest or weed control at 0.8 ppm in assay [1] (setting [6]) and in assay [2] was 0% throughout. Further, the pest or weed control at 4 ppm in assay [1] (setting [6]) is 95%.
Consider `CN(Cc1ccc(Cl)nc1)C1=CC(=O)CC1` [Compound I-18, 3-{[(6-chloropyrid-3-yl)methyl](methyl)amino}cyclopent-2-en-1-one], for which the “Kill in % after 6 days +AMS + RME” value is given as 70% in assay [1] (setting [3]), 100% in assay [1] (setting [7]) and 90% in assay [2] (setting [3]). The “Kill in % after 6 days +AMS” value is reported as 0% in assay [1] (setting [4]), 95% in assay [1] (setting [8]) and 50% in assay [2] (setting [4]). The “Kill in % after 6 days +RME” value in assay [1] (setting [5]) stood at 98%; in assay [1] (setting [9]) it was 100%; in assay [2] (setting [5]), 75%. Also, the pest or weed control at 0.8 ppm in assay [1] (setting [6]) worked out at 25%; in assay [2] it was 65%. Also, the pest or weed control at 4 ppm in assay [1] (setting [6]) was 80%.
For the compound `O=C1C=C(N(Cc2ccc(Cl)nc2)C2CC2)CC1` [Compound I-19, 3-{[(6-chloropyrid-3-yl)methyl](cyclopropyl)amino}cyclopent-2-en-1-one], the results for the “Kill in % after 6 days +AMS + RME” value in assay [1] (setting [10]), in assay [2] (setting [3]) and in assay [2] (setting [7]) were 100%, 50% and 80%, respectively. Further, the “Kill in % after 6 days +AMS” value in assay [1] (setting [11]) was determined as 80%; in assay [2] (setting [4]), 0%; in assay [2] (setting [8]) it was 40%. The “Kill in % after 6 days +RME” value worked out at 98% in assay [1] (setting [12]), 40% in assay [2] (setting [5]) and 85% in assay [2] (setting [9]). In addition, the pest or weed control at 20 ppm in assay [1] (setting [6]) stood at 80%. Further, the pest or weed control at 0.8 ppm in assay [2] is 0%. Besides, in assay [2], the pest or weed control at 4 ppm was 15%.
Regarding `CN(Cc1cccnc1)C1=CC(=O)OC1` [Compound I-21, 4-[methyl(pyrid-3-ylmethyl)amino]furan-2(5H)-one], the “Kill in % after 6 days +AMS + RME” value in assay [1] (100 ppm a.i. + AMS and RME 1000 ppm each) is recorded as 65%; in assay [2] (setting [7]) it was 45%. Further, the “Kill in % after 6 days +AMS” value in assay [1] (100 ppm a.i. + ammonium sulphate 1000 ppm) stood at 70%; in assay [2] (setting [8]) it was 5%. In addition, the “Kill in % after 6 days +RME” value in assay [1] (100 ppm a.i. + rapeseed oil methyl ester 1000 ppm) is on record as 90%; in assay [2] (setting [9]), 50%. Further, the pest or weed control at 100 ppm in assay [1] (Myzus persicae, 144 h, 100 ppm a.i. alone, read-out: Kill in % after 6 days a.i.) stood at 50%. Besides, the pest or weed control at 4 ppm in assay [2] worked out at 10%.
Regarding `O=C1C=C(N(Cc2ccc(F)nc2)C2CC2)CO1` [Compound I-22, 4-{cyclopropyl[(6-fluoropyrid-3-yl)methyl]amino}furan-2(5H)-one], the “Kill in % after 6 days +AMS + RME” value in assay [1] (setting [7]) was found to be 80%; in assay [1] (setting [10]) it was 90%; in assay [2] (setting [3]) it was 45%; in assay [2] (setting [7]), 65%. Further, the “Kill in % after 6 days +AMS” value in assay [1] (setting [8]) is 0%; in assay [1] (setting [11]) it was 80%; in assay [2] (setting [4]), 20%; in assay [2] (setting [8]) it was 70%. The “Kill in % after 6 days +RME” value in assay [1] (setting [9]) is reported as 70%; in assay [1] (setting [12]), 85%; in assay [2] (setting [5]), 30%; in assay [2] (setting [9]) it was 55%. In addition, the pest or weed control at 4 ppm in assay [1] (setting [6]) is 5%; in assay [2] it was 60%. Also, the pest or weed control at 20 ppm in assay [1] (setting [6]) stood at 65%. The pest or weed control at 0.8 ppm in assay [2] stood at 25%.
In the case of `CN(Cc1ccc(C(F)(F)F)nc1)C1=CC(=O)OC1` [Compound I-23, 4-(methyl {[6-(trifluoromethyl)pyrid-3-yl]methyl}amino)furan-2(5H)-one], the entries for the “Kill in % after 6 days +AMS + RME” value in assay [1] (setting [3]) and in assay [2] (setting [3]) were 80% and 25%, respectively. For the same compound, the “Kill in % after 6 days +AMS” value was 10% in assay [1] (setting [4]) and 15% in assay [2] (setting [4]). The “Kill in % after 6 days +RME” value in assay [1] (setting [5]) stood at 75%; in assay [2] (setting [5]) it was 50%. The pest or weed control at 0.8 ppm in assay [1] (setting [6]) is 35%; in assay [2], 10%.
